Measured values taken from the supplement of paper PMC11061612.

Assays:
[1] = test system: COLO-320-HSR (Colorectal Carcinoma); assay: Bliss excess, mean over the matrix (fraction); higher = more synergy
Method in brief: (§1)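 Cell lines in DMEM/F12 or RPMI with 10% FBS were plated in 1536-well plates, held 24 hours at 37°C, 5% CO2, then given two-drug dose matrices for 72 hours (DMSO typically 0.2%). Viability was read by CellTiter-Glo 2.0 luminescence and scaled as inhibition from 0 (vehicle wells) to 1 (blank wells). Combination Emax is the second-highest inhibition in the matrix; Bliss excess is observed combination effect minus expected EA + EB − EA·EB, EA and EB being single-agent effects.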

[2] = test system: CCK-81 (Colorectal Carcinoma); assay: as above
Method in brief: as §1

[3] = test system: ECC10 (Gastric Carcinoma); assay: as above
Method in brief: as §1

[4] = test system: U-2-OS (Osteosarcoma); assay: as above
Method in brief: as §1

[5] = test system: VCaP (Prostate Carcinoma); assay: as above
Method in brief: as §1

[6] = test system: NCI-H1666 (Lung Adenocarcinoma); assay: as above
Method in brief: as §1

[7] = test system: NY (Osteosarcoma); assay: as above
Method in brief: as §1

[8] = test system: NCI-H1581 (Non-Small Cell Lung Carcinoma); assay: as above
Method in brief: as §1

[9] = test system: NCI-H64 (Small Cell Lung Carcinoma); assay: as above
Method in brief: as §1

[10] = test system: PANC-10-05 (Pancreatic Carcinoma); assay: as above
Method in brief: as §1

[11] = test system: ONS-76 (Other Solid Carcinomas); assay: as above
Method in brief: as §1

[12] = test system: TT (Thyroid Gland Carcinoma); assay: as above
Method in brief: as §1

[13] = test system: FU97 (Gastric Carcinoma); assay: as above
Method in brief: as §1

[14] = test system: NCI-H2066 (Squamous Cell Lung Carcinoma); assay: as above
Method in brief: as §1

[15] = test system: BICR22 (Oral Cavity Carcinoma); assay: as above
Method in brief: as §1

[16] = test system: IGR-37 (Melanoma); assay: as above
Method in brief: as §1

[17] = test system: KARPAS-422 (B-Cell Non-Hodgkin's Lymphoma); assay: as above
Method in brief: as §1

[18] = test system: CAPAN-2 (Pancreatic Carcinoma); assay: as above
Method in brief: as §1

[19] = test system: COLO-320-HSR (Colorectal Carcinoma); assay: combination Emax (second highest fraction inhibited in the dose matrix, 72 h); higher = more inhibition; extreme values may be limits of the assay
Method in brief: as §1

[20] = test system: CCK-81 (Colorectal Carcinoma); assay: as above
Method in brief: as §1

[21] = test system: ECC10 (Gastric Carcinoma); assay: as above
Method in brief: as §1

[22] = test system: U-2-OS (Osteosarcoma); assay: as above
Method in brief: as §1

[23] = test system: VCaP (Prostate Carcinoma); assay: as above
Method in brief: as §1

[24] = test system: NCI-H1666 (Lung Adenocarcinoma); assay: as above
Method in brief: as §1

[25] = test system: NY (Osteosarcoma); assay: as above
Method in brief: as §1

[26] = test system: NCI-H1581 (Non-Small Cell Lung Carcinoma); assay: as above
Method in brief: as §1

[27] = test system: NCI-H64 (Small Cell Lung Carcinoma); assay: as above
Method in brief: as §1

[28] = test system: PANC-10-05 (Pancreatic Carcinoma); assay: as above
Method in brief: as §1

[29] = test system: ONS-76 (Other Solid Carcinomas); assay: as above
Method in brief: as §1

[30] = test system: TT (Thyroid Gland Carcinoma); assay: as above
Method in brief: as §1

[31] = test system: FU97 (Gastric Carcinoma); assay: as above
Method in brief: as §1

[32] = test system: NCI-H2066 (Squamous Cell Lung Carcinoma); assay: as above
Method in brief: as §1

[33] = test system: BICR22 (Oral Cavity Carcinoma); assay: as above
Method in brief: as §1

[34] = test system: IGR-37 (Melanoma); assay: as above
Method in brief: as §1

[35] = test system: KARPAS-422 (B-Cell Non-Hodgkin's Lymphoma); assay: as above
Method in brief: as §1

[36] = test system: CAPAN-2 (Pancreatic Carcinoma); assay: as above
Method in brief: as §1
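Wherever Bliss excess, mean over the matrix is given: after 72 h of two-drug dosing.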

Question: For `N#Cc1cnc(Nc2cc(NC[C@H]3CNCCO3)c(C(F)(F)F)cn2)cn1` [SRA737] + O=c1[nH]cc(F)c(=O)[nH]1 [5-Fluorouracil] (first compound max 10 µM, 7x7, partner max 20 µM), which Bliss excess [1] is on record?
Answer: 0.0047

Question: What about the Bliss excess [2] of the same compound?
Answer: -0.0681

Question: What about the Bliss excess [3] of the same compound?
Answer: 0.0718

Question: What about the Bliss excess [4] of the same compound?
Answer: -0.0167

Question: What about the Bliss excess [5] of the same compound?
Answer: -0.046

Question: What about the Bliss excess [6] of the same compound?
Answer: -0.0428

Question: And the Bliss excess [7]?
Answer: -0.0522

Question: What about the Bliss excess [8] of the same compound?
Answer: 0.0093

Question: What about the Bliss excess [9] of the same compound?
Answer: -0.0104

Question: And the Bliss excess [10]?
Answer: -0.0727

Question: What about the Bliss excess [11] of the same compound?
Answer: -0.0482

Question: And the Bliss excess [12]?
Answer: 0.0035

Question: And the Bliss excess [13]?
Answer: -0.0344

Question: And the Bliss excess [14]?
Answer: -0.0379

Question: And the Bliss excess [15]?
Answer: 0.0671

Question: What about the Bliss excess [16] of the same compound?
Answer: -0.057

Question: What about the Bliss excess [17] of the same compound?
Answer: -0.0095

Question: What about the Bliss excess [18] of the same compound?
Answer: -0.0132

Question: And the “combination Emax” value [19]?
Answer: 0.302

Question: What about the “combination Emax” value [20] of the same compound?
Answer: 0.855

Question: What about the “combination Emax” value [21] of the same compound?
Answer: 0.72

Question: What about the “combination Emax” value [22] of the same compound?
Answer: 0.625

Question: What about the “combination Emax” value [23] of the same compound?
Answer: 0.378

Question: And the “combination Emax” value [24]?
Answer: 0.381

Question: What about the “combination Emax” value [25] of the same compound?
Answer: 0.538

Question: What about the “combination Emax” value [26] of the same compound?
Answer: 0.411

Question: And the “combination Emax” value [27]?
Answer: 0.736

Question: And the “combination Emax” value [28]?
Answer: 0.311

Question: And the “combination Emax” value [29]?
Answer: 0.835

Question: What about the “combination Emax” value [30] of the same compound?
Answer: 0.373

Question: What about the “combination Emax” value [31] of the same compound?
Answer: 0.167

Question: And the “combination Emax” value [32]?
Answer: 0.197

Question: And the “combination Emax” value [33]?
Answer: 0.84

Question: And the “combination Emax” value [34]?
Answer: 0.728

Question: And the “combination Emax” value [35]?
Answer: 0.521

Question: What about the “combination Emax” value [36] of the same compound?
Answer: 0.147

Question: For `Cc1nc(-c2cn3c(n2)-c2ccc(-c4cnn(C(C)(C)C(N)=O)c4)cc2OCC3)n(C(C)C)n1` [Taselisib] + O=C(Nc1ccc2[nH]nc(-c3ccncc3)c2c1)[C@@H]1CCN(CC(=O)N2CCN(c3ccc(-c4ncccn4)cc3)CC2)C1 [SCH772984] (first compound max 10 µM, 7x7, partner max 5 µM), which Bliss excess [1] is on record?
Answer: -0.0441

Question: And the Bliss excess [2]?
Answer: 0.0528

Question: And the Bliss excess [3]?
Answer: 0.124

Question: What about the Bliss excess [4] of the same compound?
Answer: 0.112

Question: What about the Bliss excess [5] of the same compound?
Answer: -0.0098

Question: What about the Bliss excess [6] of the same compound?
Answer: 0.0878

Question: And the Bliss excess [7]?
Answer: 0.0687

Question: What about the Bliss excess [8] of the same compound?
Answer: 0.178

Question: What about the Bliss excess [9] of the same compound?
Answer: 0.0028

Question: What about the Bliss excess [10] of the same compound?
Answer: 0.0166

Question: And the Bliss excess [11]?
Answer: 0.0608

Question: And the Bliss excess [12]?
Answer: 0.106

Question: And the Bliss excess [13]?
Answer: 0.0139

Question: What about the Bliss excess [14] of the same compound?
Answer: 0.0133

Question: What about the Bliss excess [15] of the same compound?
Answer: 0.116

Question: And the Bliss excess [16]?
Answer: 0.0732

Question: What about the Bliss excess [17] of the same compound?
Answer: 0.0406

Question: And the Bliss excess [18]?
Answer: 0.0241

Question: And the “combination Emax” value [19]?
Answer: 0.419

Question: And the “combination Emax” value [20]?
Answer: 0.988

Question: And the “combination Emax” value [21]?
Answer: 1

Question: What about the “combination Emax” value [22] of the same compound?
Answer: 0.993

Question: What about the “combination Emax” value [23] of the same compound?
Answer: 0.587

Question: What about the “combination Emax” value [24] of the same compound?
Answer: 0.881

Question: What about the “combination Emax” value [25] of the same compound?
Answer: 0.564

Question: And the “combination Emax” value [26]?
Answer: 0.635

Question: And the “combination Emax” value [27]?
Answer: 0.377

Question: What about the “combination Emax” value [28] of the same compound?
Answer: 0.809

Question: And the “combination Emax” value [29]?
Answer: 0.976

Question: What about the “combination Emax” value [30] of the same compound?
Answer: 0.568

Question: What about the “combination Emax” value [31] of the same compound?
Answer: 0.404

Question: And the “combination Emax” value [32]?
Answer: 0.681

Question: What about the “combination Emax” value [33] of the same compound?
Answer: 0.966

Question: And the “combination Emax” value [34]?
Answer: 0.938

Question: And the “combination Emax” value [35]?
Answer: 0.554

Question: And the “combination Emax” value [36]?
Answer: 0.521

Question: How did the Bliss excess [1] turn out when `CC1(C)CCC(CN2CCN(c3ccc(C(=O)NS(=O)(=O)c4ccc(NCC5CCOCC5)c([N+](=O)[O-])c4)c(Oc4cnc5[nH]ccc5c4)c3)CC2)=C(c2ccc(Cl)cc2)C1` [Venetoclax] + CS(=O)(=O)CCNCc1ccc(-c2ccc3ncnc(Nc4ccc(OCc5cccc(F)c5)c(Cl)c4)c3c2)o1 [Lapatinib] (first compound max 1 µM, 7x7, partner max 10 µM) was run?
Answer: -0.0048

Question: And the Bliss excess [2]?
Answer: -0.0352

Question: And the Bliss excess [3]?
Answer: 0.0105

Question: And the Bliss excess [4]?
Answer: -0.044

Question: And the Bliss excess [5]?
Answer: -0.0449

Question: What about the Bliss excess [6] of the same compound?
Answer: -0.0214

Question: And the Bliss excess [7]?
Answer: -0.0008

Question: What about the Bliss excess [8] of the same compound?
Answer: -0.0136

Question: What about the Bliss excess [9] of the same compound?
Answer: -0.0068

Question: What about the Bliss excess [10] of the same compound?
Answer: -0.0426

Question: What about the Bliss excess [11] of the same compound?
Answer: -0.0055

Question: And the Bliss excess [12]?
Answer: -0.0344

Question: And the Bliss excess [13]?
Answer: 0.0218

Question: What about the Bliss excess [14] of the same compound?
Answer: -0.0203

Question: What about the Bliss excess [15] of the same compound?
Answer: -0.0287

Question: And the Bliss excess [16]?
Answer: 0.0223

Question: What about the Bliss excess [17] of the same compound?
Answer: 0.049

Question: What about the Bliss excess [18] of the same compound?
Answer: -0.0425

Question: What about the “combination Emax” value [19] of the same compound?
Answer: 0.169

Question: And the “combination Emax” value [20]?
Answer: 0.892

Question: And the “combination Emax” value [21]?
Answer: 0.94

Question: And the “combination Emax” value [22]?
Answer: 0.0668

Question: And the “combination Emax” value [23]?
Answer: 0.109

Question: What about the “combination Emax” value [24] of the same compound?
Answer: 0.568

Question: And the “combination Emax” value [25]?
Answer: 0.226

Question: And the “combination Emax” value [26]?
Answer: 0.242

Question: And the “combination Emax” value [27]?
Answer: 0.21

Question: And the “combination Emax” value [28]?
Answer: 0.353

Question: And the “combination Emax” value [29]?
Answer: 0.228

Question: What about the “combination Emax” value [30] of the same compound?
Answer: 0.121

Question: And the “combination Emax” value [31]?
Answer: 0.813

Question: What about the “combination Emax” value [32] of the same compound?
Answer: 0.352

Question: What about the “combination Emax” value [33] of the same compound?
Answer: 0.21

Question: What about the “combination Emax” value [34] of the same compound?
Answer: 0.253

Question: What about the “combination Emax” value [35] of the same compound?
Answer: 0.884

Question: And the “combination Emax” value [36]?
Answer: 0.115
